{"source": "patent US6737383B1", "about": "“Herbicidal oxadiazolidines” (priority 1999, dated 2004)", "key": {"sandbur": {"test_system": "sandbur", "assay": "Test D sandbur", "assay_type": "in vivo, Cenchrus echinatus", "conditions": "Preemergence, 0 to 100 scale, 0 no injury, 100 complete control", "from_the_text": "(§1) Seeds, tubers, or plant parts of Alexandergrass (Brachiaria plantaginea), bermuda-grass (Cynodon dactylon), common pursiane (Portulaca oleracea), common ragweed (Ambrosia elatior), common groundsel (Senecio vulgaris), dallisgrass (Paspalum dilatatum), goosegrass (Eleusine indica), guineagrass (Panicum maximum), itchgrass (Rottboellia exaltata), Johnson grass (Sorghum halepense), large crabgrass (Digitaria sanguinalis), pitted morningglory (Ipomoea lacunosa), purple nutsedge (Cyperus rotundus), sandbur (Cenchrus echinatus), sourgrass (Trichachne insularis), Spanishneedles (Bidens bipinnata), surinam grass (Brachiaria decumbens) and tall mallow (Malva sylvestris) were planted into greenhouse pots of flats containing greenhouse planting medium. Plant species were grown in separate pots or individual compartments. Preemergence applications were made within one day of planting the seed or plant part.\n(§2) Test chemicals were formulated in a non-phytotoxic solvent mixture which included a surfactant and applied preemergence to the surface of the pot containing seeds in a sandy loam soil. Untreated control pots and treated pots were placed in the greenhouse for growth and visually evaluated for injury 14 to 21 days after herbicide application. Plant response ratings, summarized in Table C, are based on a 0 to 100 scale where 0 is no injury and 100 is complete control. A dash (−) response means no test result."}, "common groundsel": {"test_system": "common groundsel", "assay": "Test D common groundsel", "assay_type": "in vivo, Senecio vulgaris", "conditions": "Preemergence, 0 to 100 scale, 0 no injury, 100 complete control", "from_the_text": "as §1, §2"}, "itchgrass": {"test_system": "itchgrass", "assay": "Test D itchgrass", "assay_type": "in vivo, Rottboellia exaltata", "conditions": "Preemergence, 0 to 100 scale, 0 no injury, 100 complete control", "method_in_brief": "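Scoring used a 0–100 visual injury scale, with 0 meaning no effect and 100 complete control, assessed 14–21 days after application alongside untreated pots. Preemergence treatments went onto sandy loam surfaces of separately potted seeds within a day of sowing.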"}, "large crabgrass": {"test_system": "large crabgrass", "assay": "Test D large crabgrass", "assay_type": "in vivo, Digitaria sanguinalis", "conditions": "Preemergence, 0 to 100 scale, 0 no injury, 100 complete control", "method_in_brief": "(§3)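 Visual injury ratings, 0 = no injury to 100 = complete control, taken 14 to 21 days after treatment. Test chemicals were in a surfactant-containing non-phytotoxic solvent; preemergence treatments went onto the sandy loam surface of seeded greenhouse pots within one day of sowing.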"}, "purple nutsedge": {"test_system": "purple nutsedge", "assay": "Test D purple nutsedge", "assay_type": "in vivo, Cyperus rotundus", "conditions": "Preemergence, 0 to 100 scale, 0 no injury, 100 complete control", "method_in_brief": "as §3"}, "common pursiane": {"test_system": "common pursiane", "assay": "Test D common purslane", "assay_type": "in vivo, Portulaca oleracea", "conditions": "Preemergence, 0 to 100 scale, 0 no injury, 100 complete control", "method_in_brief": "as §3"}, "dallisgrass": {"test_system": "dallisgrass", "assay": "Test D dallisgrass", "assay_type": "in vivo, Paspalum dilatatum", "conditions": "Preemergence, 0 to 100 scale, 0 no injury, 100 complete control", "from_the_text": "as §1, §2"}, "Green foxtail": {"test_system": "Green foxtail", "assay": "Test D green foxtail", "assay_type": "in vivo", "from_the_text": "as §1, §2"}, "guineagrass": {"test_system": "guineagrass", "assay": "Test D guineagrass", "assay_type": "in vivo, Panicum maximum", "conditions": "Preemergence, 0 to 100 scale, 0 no injury, 100 complete control", "method_in_brief": "as §3"}, "goosegrass": {"test_system": "goosegrass", "assay": "Test D goosegrass", "assay_type": "in vivo, Eleusine indica", "conditions": "Preemergence, 0 to 100 scale, 0 no injury, 100 complete control", "method_in_brief": "as §3"}, "Spanishneedles": {"test_system": "Spanishneedles", "assay": "Test D Spanishneedles", "assay_type": "in vivo, Bidens bipinnata", "conditions": "Preemergence, 0 to 100 scale, 0 no injury, 100 complete control", "from_the_text": "as §1, §2"}, "pitted morningglory": {"test_system": "pitted morningglory", "assay": "Test D pitted morningglory", "assay_type": "in vivo, Ipomoea lacunosa", "conditions": "Preemergence, 0 to 100 scale, 0 no injury, 100 complete control", "from_the_text": "as §1\nas §2, with “Plant response ratings, summarized in Table C, are based on a 0 to 100 scale where 0 is no injury and 100 is complete control.” left out"}, "bermuda-grass": {"test_system": "bermuda-grass", "assay": "Test D bermudagrass", "assay_type": "in vivo, Cynodon dactylon", "conditions": "Preemergence, 0 to 100 scale, 0 no injury, 100 complete control", "method_in_brief": "as §3"}, "common ragweed": {"test_system": "common ragweed", "assay": "Test D common ragweed", "assay_type": "in vivo, Ambrosia elatior", "conditions": "Preemergence, 0 to 100 scale, 0 no injury, 100 complete control", "from_the_text": "as §1, §2"}, "[1]": {"conditions": "Rate 64 g/ha, Preemergence; 0 to 100 scale, 0 no injury, 100 complete control"}, "[2]": {"conditions": "Rate 125 g/ha, Preemergence; 0 to 100 scale, 0 no injury, 100 complete control"}}, "data": [{"smiles": "Cc1cccc(C)c1-n1c(=O)on(C(=O)N(c2ccc(F)cc2)C(C)C)c1=O", "note": "[Compound 18]", "values": [{"measurement": "Plant response rating, Sandbur", "setting": "sandbur; Rate 16 g/ha", "result": 0}, {"measurement": "Plant response rating, Sandbur", "setting": "sandbur; Rate 32 g/ha", "result": 0}, {"measurement": "Sandbur plant response rating", "setting": "sandbur; Rate 64 g/ha", "result": 0}, {"measurement": "Sandbur plant response rating", "setting": "sandbur; Rate 125 g/ha", "result": 0}, {"measurement": "Plant response rating, Com. groundsel", "setting": "common groundsel; Rate 16 g/ha", "result": 0}, {"measurement": "Plant response rating, Com. groundsel", "setting": "common groundsel; Rate 32 g/ha", "result": 0}, {"measurement": "Plant response rating, Com. groundsel", "setting": "common groundsel; Rate 64 g/ha", "result": 0}, {"measurement": "Plant response rating, Com. groundsel", "setting": "common groundsel; Rate 125 g/ha", "result": 0}, {"measurement": "Plant response rating, Itchgrass", "setting": "itchgrass; Rate 16 g/ha", "result": 0}, {"measurement": "Plant response rating, Itchgrass", "setting": "itchgrass; Rate 32 g/ha", "result": 0}, {"measurement": "Plant response rating, Itchgrass", "setting": "itchgrass; Rate 64 g/ha", "result": 0}, {"measurement": "Plant response rating, Itchgrass", "setting": "itchgrass; Rate 125 g/ha", "result": 0}, {"measurement": "Plant response rating Large crabgrass", "setting": "large crabgrass; Rate 16 g/ha", "result": 0}, {"measurement": "Plant response rating Large crabgrass", "setting": "large crabgrass; Rate 32 g/ha", "result": 0}, {"measurement": "Plant response rating Large crabgrass", "setting": "large crabgrass; Rate 64 g/ha", "result": 98}, {"measurement": "Plant response rating Large crabgrass", "setting": "large crabgrass; Rate 125 g/ha", "result": 100}, {"measurement": "Plant response rating, Purple nutsedge", "setting": "purple nutsedge; Rate 16 g/ha", "result": 0}, {"measurement": "Plant response rating, Purple nutsedge", "setting": "purple nutsedge; Rate 32 g/ha", "result": 0}, {"measurement": "Purple nutsedge plant response rating", "setting": "purple nutsedge; Rate 64 g/ha", "result": 0}, {"measurement": "Purple nutsedge plant response rating", "setting": "purple nutsedge; Rate 125 g/ha", "result": 0}, {"measurement": "Plant response rating, C. purslane", "setting": "common pursiane; Rate 16 g/ha", "result": 0}, {"measurement": "Plant response rating, C. purslane", "setting": "common pursiane; Rate 32 g/ha", "result": 0}, {"measurement": "Plant response rating, C. purslane", "setting": "common pursiane; Rate 64 g/ha", "result": 0}, {"measurement": "Plant response rating, C. purslane", "setting": "common pursiane; Rate 125 g/ha", "result": 0}, {"measurement": "Plant response rating, Dallisgrass", "setting": "dallisgrass; Rate 16 g/ha", "result": 0}, {"measurement": "Plant response rating, Dallisgrass", "setting": "dallisgrass; Rate 32 g/ha", "result": 0}, {"measurement": "Plant response rating, Dallisgrass", "setting": "dallisgrass; Rate 64 g/ha", "result": 85}, {"measurement": "Plant response rating, Dallisgrass", "setting": "dallisgrass; Rate 125 g/ha", "result": 100}, {"measurement": "Plant response rating, Green foxtail", "setting": "Green foxtail; Preemergence; Rate 16 g/ha; 0 to 100 scale, 0 no injury, 100 complete control", "result": 0}, {"measurement": "Plant response rating, Green foxtail", "setting": "Green foxtail; Preemergence; Rate 32 g/ha; 0 to 100 scale, 0 no injury, 100 complete control", "result": 0}, {"measurement": "Plant response rating, Green foxtail", "setting": "Green foxtail; Rate 16 g/ha; Preemergence; 0 to 100 scale, 0 no injury, 100 complete control", "result": 0}, {"measurement": "Plant response rating, Green foxtail", "setting": "Green foxtail; Rate 32 g/ha; Preemergence; 0 to 100 scale, 0 no injury, 100 complete control", "result": 0}, {"measurement": "Green foxtail plant response rating", "setting": "Green foxtail; [1]", "result": 85}, {"measurement": "Plant response rating, Green foxtail", "setting": "Green foxtail; [1]", "result": 85}, {"measurement": "Green foxtail plant response rating", "setting": "Green foxtail; [2]", "result": 85}, {"measurement": "Plant response rating, Green foxtail", "setting": "Green foxtail; [2]", "result": 85}, {"measurement": "Plant response rating, Guineagrass", "setting": "guineagrass; Rate 16 g/ha", "result": 0}, {"measurement": "Plant response rating, Guineagrass", "setting": "guineagrass; Rate 32 g/ha", "result": 0}, {"measurement": "Plant response rating, Guineagrass", "setting": "guineagrass; Rate 64 g/ha", "result": 30}, {"measurement": "Plant response rating, Guineagrass", "setting": "guineagrass; Rate 125 g/ha", "result": 65}, {"measurement": "Plant response rating, Goosegrass", "setting": "goosegrass; Rate 16 g/ha", "result": 0}, {"measurement": "Plant response rating, Goosegrass", "setting": "goosegrass; Rate 32 g/ha", "result": 0}, {"measurement": "Plant response rating, Goosegrass", "setting": "goosegrass; Rate 64 g/ha", "result": 85}, {"measurement": "Plant response rating, Goosegrass", "setting": "goosegrass; Rate 125 g/ha", "result": 85}, {"measurement": "Plant response rating, Spanishneedles", "setting": "Spanishneedles; Rate 16 g/ha", "result": 0}, {"measurement": "Plant response rating, Spanishneedles", "setting": "Spanishneedles; Rate 32 g/ha", "result": 0}, {"measurement": "Spanishneedles plant response rating", "setting": "Spanishneedles; Rate 64 g/ha", "result": 0}, {"measurement": "Spanishneedles plant response rating", "setting": "Spanishneedles; Rate 125 g/ha", "result": 0}, {"measurement": "Plant response rating, P. morninglory", "setting": "pitted morningglory; Rate 16 g/ha", "result": 0}, {"measurement": "Plant response rating, P. morninglory", "setting": "pitted morningglory; Rate 32 g/ha", "result": 0}, {"measurement": "Plant response rating, P. morninglory", "setting": "pitted morningglory; Rate 64 g/ha", "result": 0}, {"measurement": "Plant response rating, P. morninglory", "setting": "pitted morningglory; Rate 125 g/ha", "result": 0}, {"measurement": "Plant response rating, Bermudagrass", "setting": "bermuda-grass; Rate 16 g/ha", "result": 40}, {"measurement": "Plant response rating, Bermudagrass", "setting": "bermuda-grass; Rate 32 g/ha", "result": 60}, {"measurement": "Plant response rating, Bermudagrass", "setting": "bermuda-grass; Rate 64 g/ha", "result": 85}, {"measurement": "Plant response rating, Bermudagrass", "setting": "bermuda-grass; Rate 125 g/ha", "result": 100}, {"measurement": "Plant response rating, C. ragweed", "setting": "common ragweed; Rate 16 g/ha", "result": 0}, {"measurement": "Plant response rating, C. ragweed", "setting": "common ragweed; Rate 32 g/ha", "result": 0}, {"measurement": "Plant response rating, C. ragweed", "setting": "common ragweed; Rate 64 g/ha", "result": 0}, {"measurement": "Plant response rating, C. ragweed", "setting": "common ragweed; Rate 125 g/ha", "result": 0}]}]}
